Test results as given in publication PMC10786919, “Design-rules for stapled peptides with in vivo activity and their application to Mdm2/X antagonists” (Nature Communications, 2024).
pEC50: −log10 of the molar value. Values after ≈ are worked out from the molar mass of the structure shown. Read-outs that look alike come from different tables or passages of the source. Positions of bridges follow the written chain, without caps; N, C: chain ends. Non-standard residues stand in square brackets, D forms with d. Residues, ends and D or L forms follow the SMILES beside them. Lys(N3) = [N-]=[N+]=NCCCC[C@H](N)C(=O)O; hArg = N=C(N)NCCCC[C@H](N)C(=O)O; R8 = C=CCCCCCC[C@@](C)(N)C(=O)O; Cba = N[C@@H](CC1CCC1)C(=O)O; S5 = C=CCCC[C@](C)(N)C(=O)O; Aib = CC(C)(N)C(=O)O; βAla = NCCC(=O)O

Legend:
[1] = Lactate dehydrogenase (LDH) release assay; assay type: cell-based
In short: (§1)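 Geometric means of at least three independent biological runs are given for LDH release measured in HCT116 cells stably expressing a p53-driven β-lactamase reporter. Plating density was 8000 cells/well; DMSO in wells was 0.5%.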

physchem [2] = experiment: physchem
[3] = Solubility assay (kinetic solubility, PBS pH 7); assay type: physicochemical; conditions: pH 7, PBS; for solubility kinetic: pH 7, aqueous buffer, kinetic from dmso stock, read-out: Solubility
In short: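 Quantitation uses an external standard at 100 µM, prepared from 10 mM stock in acetonitrile:methanol:DMSO (10:80:10). Solubility (µM) = (peak area of sample ÷ peak area of standard) × standard concentration.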

[4] = Experimental LogD (partition coefficient); conditions: for logD: not stated, Partition Coeff LogD
physchem [5] = experiment: physchem; remark: listed apart in the source
[6] = tested on: Jump-In T-REx CHO-K1 BLA cells; experiment: cells; assay type: cell-based
[7] = tested on: p53 responsive β-lactamase reporter in HCT116 cells; experiment: cells; assay type: cell-based; conditions: 0% FBS 4Hr; read-out: p53 reporter assay: EC50
In short: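 HCT116 cells stably carrying a p53-responsive β-lactamase reporter, seeded at 8000 cells/well, with 0.5% DMSO final. Reporter activity read by ToxBLAzer Dual Screen. Values are geometric means of at least three biological replicates.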

HCT116 cells = experiment: Lactate dehydrogenase (LDH) release assay; assay type: cell-based
In short: as §1

[8] = tested on: cells transiently transfected with the NanoLuc-HaloTag vector; experiment: Nanoclick permeability assay; conditions: 4Hr
In short: (§2)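 Azido-peptide permeability was read as loss of NanoBRET signal (donor 450 nm, acceptor 610 nm) after adding NanoBret618-azide at 10 μM final.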

[9] = Circular dichroism (CD) helicity; assay type: physicochemical
Protocol: A total of 5 µL of the 10 mM stock peptide was mixed with 45 µL of 100% methanol, and dried for 2 h in the SpeedVac concentrator (Thermo Scientific). The dried peptide was reconstituted in a buffer (1 mM Hepes pH 7.4 and 5% methanol) to a concentration of 1 mM. The peptide sample was placed in a quartz cuvette with a path length of 0.2 cm. The peptide concentration was determined by the absorbance of the peptide at […]. The CD spectrum was recorded from 300 to 190 nm using the Chirascan-plus qCD machine (Applied Photophysics, Surrey, UK), at 25 °C. All experiments were done in duplicates. The CD spectrum was converted to mean residue ellipticity before deconvolution and estimation of the secondary structure components of the peptide using the CDNN software (distributed by Applied Photophysics). Measurements were taken at least twice and were reported as arithmetic means.

in vitro = experiment: in vitro
In short: as §2

[10] = Nanoclick permeability assay EC50

Structure (SMILES)	pEC50 ([1]; LDH: Cytotoxicity assay EC50)	EPSA (physchem [2])	solubility kinetic [3]	logD [4]	cell entry EC50 (in vitro; [10])	other results
CC(=O)N[C@@H](CC(C)C)C(=O)N[C@H](C(=O)N[C@@H](Cc1ccccc1)C(=O)N[C@]1(C)CCCCCCC=CCCC[C@@](C)(C(=O)N[C@@H](CO)C(=O)N[C@@H](C)C(=O)N[C@@H](C)C(=O)NCCCCCC(N)=O)NC(=O)[C@H](CC2CCC2)NC(=O)[C@H](CCC(N)=O)NC(=O)[C@H](C)NC(=O)[C@H](Cc2c[nH]c3ccccc23)NC(=O)[C@H](Cc2ccc(O)cc2)NC(=O)[C@H](CCC(=O)O)NC1=O)[C@@H](C)O [MP-670]	< 4.30	193 A^2	–	–	–	Solubility [3]: Poorly Behaved; Partition Coeff LogD [4]: Poorly Behaved
CC(=O)N[C@@H](CC(C)C)C(=O)N[C@H](C(=O)N[C@@H](Cc1ccccc1)C(=O)NC(C)(C)C(=O)N[C@@H](CCC(=O)O)C(=O)N[C@@H](Cc1ccc(O)cc1)C(=O)N[C@@H](Cc1c[nH]c2ccccc12)C(=O)N[C@@H](C)C(=O)N[C@@H](CCC(N)=O)C(=O)N[C@@H](CC(C)C)C(=O)NC(C)(C)C(=O)N[C@@H](CO)C(N)=O)[C@@H](C)O [MP-790] (Ac-LTF[Aib]EYWAQL[Aib]S-NH2)	–	–	88 µM (≈ 129 µg/mL)	2.11	–	EPSA (physchem [5]): 176 A^2; TETCHO: Counterscreen % Effect ([6]; 0% FBS 4Hr): 9.13%; pEC50 ([6]; 0% FBS 4Hr, read-out: TETCHO: Counterscreen EC50): < 4.30; TETCHO: Counterscreen % Effect ([6]; 0% FBS 16Hr): 119.2%; pEC50 [7]: < 4.30; pEC50 ([1]; LDH: Cytotoxicity assay: EC50): < 4.30; LDH: Cytotoxicity assay: % Effect (HCT116 cells): -1.73%; Nanoclick permeability assay % Effect [8]: -7.015%; CD % Helicity [9]: 19%
CC[C@H](C)[C@H](NC(=O)[C@H](CC(C)C)NC(=O)[C@@H]1CCCN1C(C)=O)C(=O)N[C@@H](Cc1ccc(O)cc1)C(=O)N[C@@H](CC(C)C)C(=O)N[C@@H](CCCNC(=N)N)C(=O)N[C@@H](CC(C)C)C(=O)N[C@@H](CC(C)C)C(=O)N[C@@H](CCCNC(=N)N)C(=O)NCC(=O)N[C@@H](CCC(N)=O)C(=O)N[C@@H](Cc1ccccc1)C(=O)N[C@@H](CCCCN=[N+]=[N-])C(=O)NCCC(=O)N[C@@H](CC(C)C)C(=O)N[C@H](C(=O)N[C@@H](Cc1ccccc1)C(=O)N[C@]1(C)CCCCCCC=CCCC[C@@](C)(C(=O)N[C@@H](CO)C(=O)N[C@@H](C)C(=O)N[C@@H](C)C(N)=O)NC(=O)[C@H](CC2CCC2)NC(=O)[C@H](CCC(N)=O)NC(=O)[C@H](C)NC(=O)[C@H](Cc2c[nH]c3ccccc23)NC(=O)[C@H](Cc2ccc(O)cc2)NC(=O)[C@H](CCC(=O)O)NC1=O)[C@@H](C)O [MP-880]	< 4.30	245 A^2	2 µM (≈ 6.88 µg/mL)	3.54	0.569 µM	–
CC(=O)N[C@@H](CCCCN=[N+]=[N-])C(=O)NCCC(=O)N[C@@H](CC(C)C)C(=O)N[C@H](C(=O)N[C@@H](Cc1ccccc1)C(=O)N[C@]1(C)CCCCCCC=CCCC[C@@](C)(C(=O)N[C@@H](CO)C(=O)N[C@@H](CCCCNC(=N)N)C(=O)N[C@@H](C)C(N)=O)NC(=O)[C@H](CC2CCC2)NC(=O)[C@H](CCC(N)=O)NC(=O)[C@H](C)NC(=O)[C@H](Cc2c[nH]c3ccccc23)NC(=O)[C@H](Cc2ccc(O)cc2)NC(=O)[C@H](CCC(=O)O)NC1=O)[C@@H](C)O [MP-881] (Ac-[Lys(N3)][βAla]LTF[R8]EYWAQ[Cba][S5]S[hArg]A-NH2; staple 6-13)	< 4.30	183 A^2	2 µM (≈ 4.14 µg/mL)	2.9	1.92 µM	–
CC(=O)N[C@@H](CCCCN=[N+]=[N-])C(=O)NCCC(=O)N[C@@H](CC(C)C)C(=O)N[C@H](C(=O)N[C@@H](Cc1ccccc1)C(=O)N[C@]1(C)CCCCCCC=CCCC[C@@](C)(C(=O)N[C@@H](CO)C(=O)N[C@@H](C)C(=O)N[C@@H](C)C(N)=O)NC(=O)[C@H](CC2CCC2)NC(=O)[C@H](CCC(N)=O)NC(=O)[C@H](CCCCNC(=N)N)NC(=O)[C@H](Cc2c[nH]c3ccccc23)NC(=O)[C@H](Cc2ccc(O)cc2)NC(=O)[C@H](CCC(=O)O)NC1=O)[C@@H](C)O [MP-899] (Ac-[Lys(N3)][βAla]LTF[R8]EYW[hArg]Q[Cba][S5]SAA-NH2; staple 6-13)	< 4.30	200 A^2	2 µM (≈ 4.14 µg/mL)	2.76	0.189 µM	–
CC(=O)N[C@@H](CCCCN=[N+]=[N-])C(=O)NCCC(=O)N[C@@H](CC(C)C)C(=O)N[C@H](C(=O)N[C@@H](Cc1ccccc1)C(=O)N[C@]1(C)CCCCCCC=CCCC[C@@](C)(C(=O)N[C@@H](CO)C(=O)N[C@@H](C)C(=O)N[C@@H](C)C(N)=O)NC(=O)[C@H](CC2CCC2)NC(=O)[C@H](CCCCNC(=N)N)NC(=O)[C@H](C)NC(=O)[C@H](Cc2c[nH]c3ccccc23)NC(=O)[C@H](Cc2ccc(O)cc2)NC(=O)[C@H](CCC(=O)O)NC1=O)[C@@H](C)O [MP-900] (Ac-[Lys(N3)][βAla]LTF[R8]EYWA[hArg][Cba][S5]SAA-NH2; staple 6-13)	–	187 A^2	10 µM (≈ 20.1 µg/mL)	3.03	1.04 µM	–
CC(=O)N[C@@H](CCCCN=[N+]=[N-])C(=O)NCCC(=O)N[C@@H](CC(C)C)C(=O)N[C@H](C(=O)N[C@@H](Cc1ccccc1)C(=O)N[C@]1(C)CCCCCCC=CCCC[C@@](C)(C(=O)N[C@@H](CCCCNC(=N)N)C(=O)N[C@@H](C)C(=O)N[C@@H](C)C(N)=O)NC(=O)[C@H](CC2CCC2)NC(=O)[C@H](CCC(N)=O)NC(=O)[C@H](C)NC(=O)[C@H](Cc2c[nH]c3ccccc23)NC(=O)[C@H](Cc2ccc(O)cc2)NC(=O)[C@H](CCC(=O)O)NC1=O)[C@@H](C)O [MP-901] (Ac-[Lys(N3)][βAla]LTF[R8]EYWAQ[Cba][S5][hArg]AA-NH2; staple 6-13)	< 4.30	186 A^2	–	–	0.46 µM	Solubility [3]: Poorly Behaved; Partition Coeff LogD [4]: Poorly Behaved
CC(=O)N[C@@H](CCCCN=[N+]=[N-])C(=O)NCCC(=O)N[C@@H](CC(C)C)C(=O)N[C@H](C(=O)N[C@@H](Cc1ccccc1)C(=O)N[C@]1(C)CCCCCCC=CCCC[C@@](C)(C(=O)N[C@@H](CO)C(=O)N[C@@H](C)C(=O)N[C@@H](CCCCNC(=N)N)C(N)=O)NC(=O)[C@H](CC2CCC2)NC(=O)[C@H](CCC(N)=O)NC(=O)[C@H](C)NC(=O)[C@H](Cc2c[nH]c3ccccc23)NC(=O)[C@H](Cc2ccc(O)cc2)NC(=O)[C@H](CCC(=O)O)NC1=O)[C@@H](C)O [MP-902] (Ac-[Lys(N3)][βAla]LTF[R8]EYWAQ[Cba][S5]SA[hArg]-NH2; staple 6-13)	< 4.30	191 A^2	6 µM (≈ 12.4 µg/mL)	2.54	2.65 µM	–
CC(=O)N[C@@H](CCCCN=[N+]=[N-])C(=O)NCCC(=O)N[C@@H](CC(C)C)C(=O)N[C@H](C(=O)N[C@@H](Cc1ccccc1)C(=O)N[C@]1(C)CCCCCCC=CCCC[C@@](C)(C(=O)N[C@@H](CO)C(=O)N[C@@H](C)C(=O)N[C@@H](C)C(N)=O)NC(=O)[C@H](CC2CCC2)NC(=O)[C@H](CCC(N)=O)NC(=O)[C@H](C)NC(=O)[C@H](Cc2c[nH]c3ccccc23)NC(=O)[C@H](Cc2ccc(O)cc2)NC(=O)[C@H](CCCCNC(=N)N)NC1=O)[C@@H](C)O [MP-6898] (Ac-[Lys(N3)][βAla]LTF[R8][hArg]YWAQ[Cba][S5]SAA-NH2; staple 6-13)	4.91	181 A^2	2 µM (≈ 4.02 µg/mL)	3.21	2.12 µM	–
CC(=O)N[C@@H](CCCCN=[N+]=[N-])C(=O)NCCC(=O)N[C@@H](CC(C)C)C(=O)N[C@H](C(=O)N[C@@H](Cc1ccccc1)C(=O)N[C@]1(C)CCCCCCC=CCCC[C@@](C)(C(=O)N[C@@H](CO)C(=O)N[C@@H](C)C(=O)N[C@@H](C)C(N)=O)NC(=O)[C@H](CC2CCC2)NC(=O)[C@H](CCC(N)=O)NC(=O)[C@H](C)NC(=O)[C@H](Cc2c[nH]c3ccccc23)NC(=O)[C@H](Cc2ccc(O)cc2)NC(=O)[C@@H]2CCCN2C1=O)[C@@H](C)O [MP-8834]	–	–	–	3.03	–	EPSA (physchem [5]): 187 A^2; TETCHO: Counterscreen % Effect ([6]; 0% FBS 4Hr): 11.7%; pEC50 ([1]; 0% FBS 4Hr, read-out: LDH: Cytotoxicity assay: EC50): < 4.30; LDH: Cytotoxicity assay: % Effect (HCT116 cells; 0% FBS 4Hr): 1.728%; Nanoclick permeability assay % Effect [8]: 129.4%; cell entry EC50 (in vitro): 0.312 µM; CD % Helicity [9]: 21.9%
